We go through one compound from paper PMC11968560 (Proteins, 2024).

In this experiment the target is T1, PfGrp94 (Plasmodium falciparum glucose-regulated protein 94 kDa, endoplasmin) (Plasmodium falciparum, UniProt Q8I0V4).
T1 sequence (Q8I0V4 22-821): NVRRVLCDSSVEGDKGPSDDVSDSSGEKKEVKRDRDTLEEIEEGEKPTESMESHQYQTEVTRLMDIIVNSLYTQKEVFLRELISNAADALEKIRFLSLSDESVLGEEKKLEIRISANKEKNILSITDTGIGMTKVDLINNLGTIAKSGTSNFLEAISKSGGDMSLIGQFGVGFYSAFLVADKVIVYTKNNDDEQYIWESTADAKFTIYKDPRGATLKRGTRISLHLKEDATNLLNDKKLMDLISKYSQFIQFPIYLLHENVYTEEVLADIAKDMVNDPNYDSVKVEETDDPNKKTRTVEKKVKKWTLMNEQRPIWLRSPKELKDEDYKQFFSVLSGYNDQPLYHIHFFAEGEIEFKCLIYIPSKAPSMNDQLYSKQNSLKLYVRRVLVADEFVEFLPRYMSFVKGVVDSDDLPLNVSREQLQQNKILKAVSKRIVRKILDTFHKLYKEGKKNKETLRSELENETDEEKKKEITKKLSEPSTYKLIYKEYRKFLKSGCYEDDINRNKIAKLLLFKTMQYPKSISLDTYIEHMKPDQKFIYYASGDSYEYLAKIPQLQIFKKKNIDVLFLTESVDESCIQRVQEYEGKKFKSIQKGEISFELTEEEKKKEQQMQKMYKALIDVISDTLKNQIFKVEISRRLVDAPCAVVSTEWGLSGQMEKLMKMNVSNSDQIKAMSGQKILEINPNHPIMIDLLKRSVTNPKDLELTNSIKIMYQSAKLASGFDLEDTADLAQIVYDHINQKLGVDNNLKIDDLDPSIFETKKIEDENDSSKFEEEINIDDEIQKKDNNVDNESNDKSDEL
Put plainly: malachite green ATPase inhibition. Type of experiment: biochemical.

With `CCNC(=O)[C@H]1O[C@@H](n2cnc3c(N)ncnc32)[C@H](O)[C@@H]1O` [NECA], the EC50 (in general, the concentration needed to bring the measured effect to its halfway point) was found to be 3.53 ± 1.5 µM.
